Key:
[1] = tested on: Escherichia coli; assay: Photocleavage activity against pUC18 DNA assessed as conversion supercoiled to nicked circular form relative to H2pXy-Zn complex
[2] = tested on: Escherichia coli; assay: Photocleavage activity against pUC18 DNA assessed as increase in conversion supercoiled to nicked circular form in presence of 20% DMSO after 30 mins
[3] = tested on: Escherichia coli; assay: Photocleavage activity against pUC18 DNA assessed as conversion supercoiled to nicked circular form relative to H2TMPyP
[4] = tested on: Escherichia coli; assay: Photocleavage activity against pUC18 DNA assessed as conversion supercoiled to nicked circular form relative to H2mXy-Zn complex
[5] = tested on: Escherichia coli; assay: Photocleavage activity against pUC18 DNA assessed as conversion supercoiled to nicked circular form relative to H2pXy

Activity [1]	Activity [2]	Activity [3]	Activity [4]	Activity [5]	SMILES
26%	95%				C[n+]1ccc(-c2c3nc(c(-c4cc[n+](C)cc4)c4ccc([nH]4)c(-c4cc[n+](C)cc4)c4nc(c(-c5ccc(C(=O)NCc6ccc(CNC(=O)c7ccc(-c8c9nc(c(-c%10cc[n+](C)cc%10)c%10ccc([nH]%10)c(-c%10cc[n+](C)cc%10)c%10nc(c(-c%11cc[n+](C)cc%11)c%11ccc8[nH]%11)C=C%10)C=C9)cc7)cc6)cc5)c5ccc2[nH]5)C=C4)C=C3)cc1
6%		28%	12%	25%	C[n+]1ccc(-c2c3nc(c(-c4cc[n+](C)cc4)c4ccc([nH]4)c(-c4cc[n+](C)cc4)c4nc(c(-c5ccc(C(=O)NCc6cccc(CNC(=O)c7ccc(-c8c9nc(c(-c%10cc[n+](C)cc%10)c%10ccc([nH]%10)c(-c%10cc[n+](C)cc%10)c%10nc(c(-c%11cc[n+](C)cc%11)c%11ccc8[nH]%11)C=C%10)C=C9)cc7)c6)cc5)c5ccc2[nH]5)C=C4)C=C3)cc1
